Laboratory results reported in patent publication US10669268B2, “Bicyclic derivatives” (Hoffmann-La Roche Inc., priority 2012, dated 2020).

Molecular target: ATX (human His-tagged) (Homo sapiens (Human), UniProt Q13822)
Assay: Human ATX enzyme inhibition assay (fluorescence quenching, MR121 substrate)
Assay type: biochemical
Conditions: 30 nM ATX, 1 μM MR121 substrate, 30° C., pH 8.0
In short: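 Tris-HCl buffer at pH 8.0 contained 140 mM NaCl, 5 mM KCl, 1 mM each CaCl2 and MgCl2, and 0.01% Triton X-100. The MR121 substrate (1 μM final) was incubated with enzyme for 15 min at 30 °C, and activity was read by fluorescence quenching.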

SMILES | IC50 [nM]
O=C(/C=C/c1ccc(-c2ccccn2)cc1)N1C[C@@H]2CN(C(=O)c3ccc4[nH]nnc4c3)C[C@H]2C1 [Example 15.81, (E)-1-[(3aR,6aR)-5-(1H-benzotriazole-5-carbonyl)-hexahydro-pyrrolo[3,4-c]pyrrol-2-yl]-3-(4-pyridin-2-yl-phenyl)-prop-2-en-1-one] | 19
O=C(/C=C/c1ccc(-c2ccccc2)cn1)N1C[C@@H]2CN(C(=O)c3ccc4[nH]nnc4c3)C[C@H]2C1 [Example 15.84, (E)-1-[(3aR,6aR)-5-(1H-benzotriazole-5-carbonyl)-hexahydro-pyrrolo[3,4-c]pyrrol-2-yl]-3-(5-phenyl-pyridin-2-yl)-prop-2-en-1-one] | 12
O=C(CCc1ccc(-c2ccccc2)nc1)N1C[C@@H]2CN(C(=O)c3ccc4[nH]nnc4c3)C[C@H]2C1 [Example 15.85] | 29
CC(C)c1ccccc1OCC(=O)N1C[C@@H]2CN(C(=O)c3ccc4[nH]nnc4c3)C[C@H]2C1 [Example 15.86] | 19
O=C(COc1ccccc1C(F)(F)F)N1C[C@@H]2CN(C(=O)c3ccc4[nH]nnc4c3)C[C@H]2C1 [Example 15.87] | 103
O=C(COc1ccccc1-c1ccccc1)N1C[C@@H]2CN(C(=O)c3ccc4[nH]nnc4c3)C[C@H]2C1 [Example 15.88] | 27
O=C(/C=C/N1C[C@@H]2CN(C(=O)[C@@H]3CCc4[nH]nnc4C3)C[C@H]2C1)c1ccc(OC(F)(F)F)cc1 [Example 15.89] | 7
O=C(COc1ccc(OC(F)(F)F)cc1Cl)N1C[C@@H]2CN(C(=O)c3ccc4[nH]nnc4c3)C[C@H]2C1 [Example 15.91] | 12
O=C(COc1ccccc1-n1cccc1)N1C[C@@H]2CN(C(=O)c3ccc4[nH]nnc4c3)C[C@H]2C1 [Example 15.92] | 249
COc1cc(C#N)ccc1OCC(=O)N1C[C@@H]2CN(C(=O)c3ccc4[nH]nnc4c3)C[C@H]2C1 [Example 15.93] | 921
N#Cc1ccc(OCC(=O)N2C[C@@H]3CN(C(=O)c4ccc5[nH]nnc5c4)C[C@H]3C2)cc1 [Example 15.94] | 1020
O=C(COc1ccccc1)N1C[C@@H]2CN(C(=O)c3ccc4[nH]nnc4c3)C[C@H]2C1 [Example 15.95] | 1900
N#Cc1cc(OC(F)(F)F)ccc1OCC(=O)N1C[C@@H]2CN(C(=O)c3ccc4[nH]nnc4c3)C[C@H]2C1 [Example 15.96] | 74
Cc1ccc(C(C)C)c(OCC(=O)N2CC[C@@H]3CN(C(=O)c4ccc5[nH]nnc5c4)C[C@@H]3CC2)c1 [Example 15.97] | 9
O=C(c1ccc2[nH]nnc2c1)N1C[C@H]2CN(C(=O)c3cc4ccc(OC(F)(F)F)cc4[nH]3)C[C@@H]2C1 [Example 15.98] | 13
O=C(c1ccc2[nH]nnc2c1)N1C[C@H]2CN(C(=O)c3cc4cc(OC(F)(F)F)ccc4[nH]3)C[C@@H]2C1 [Example 15.99] | 12
O=C(/C=C/c1ccc([S+]([O-])C(F)(F)F)cc1)N1CC[C@@H]2CN(C(=O)c3ccc4[nH]nnc4c3)C[C@@H]2CC1 (stereo partly drawn) [Example 16, (E)-1-((3aR,8aS)-2-(1H-benzo[d][1,2,3]triazole-5-carbonyl)octahydropyrrolo[3,4-d]azepin-6(7H)-yl)-3-(4-(trifluoromethylsulfinyl)phenyl)prop-2-en-1-one] | 15

SMILES | IC50 [nM]
O=C(CCc1ccc(OC(F)(F)F)c(F)c1)N1CC[C@@H]2CN(C(=O)c3ccc4[nH]nnc4c3)C[C@@H]2CC1 [Example 17, 1-((3aR,8aS)-2-(1H-Benzo[d][1,2,3]triazole-5-carbonyl)octahydropyrrolo[3,4-d]azepin-6(7H)-yl)-3-(3-fluoro-4-(trifluoromethoxy)phenyl)propan-1-one] | 4
CN(Cc1cnn[nH]1)C(=O)N1C[C@H]2CCN(C(=O)CCc3ccc(OC(F)(F)F)cc3)CC[C@H]2C1 [Example 17.01, (3aR,8aS)-N-((1H-1,2,3-triazol-5-yl)methyl)-N-methyl-6-(3-(4-(trifluoromethoxy)phenyl)-propanoyl)octahydropyrrolo[3,4-d]azepine-2(1H)-carboxamide] | 85
CN(Cc1cnn[nH]1)C(=O)N1C[C@H]2CCN(C(=O)CCc3ccc(OC(F)(F)F)c(F)c3)CC[C@H]2C1 [Example 17.02, (3aR,8aS)-N-((1H-1,2,3-triazol-5-yl)methyl)-6-(3-(3-fluoro-4-(trifluoromethoxy)phenyl)-propanoyl)-N-methyloctahydropyrrolo[3,4-d]azepine-2(1H)-carboxamide] | 101
O=C(CCc1ccc(OC(F)F)cc1)N1C[C@@H]2CN(C(=O)c3ccc4[nH]nnc4c3)C[C@H]2C1 [Example 17.03, 1-[(3aR,6aR)-5-(1H-benzotriazole-5-carbonyl)-hexahydro-pyrrolo[3,4-c]pyrrol-2-yl]-3-(4-difluoromethoxy-phenyl)-propan-1-one] | 16
O=C(CCc1ccc(OC(F)(F)F)cc1F)N1C[C@@H]2CN(C(=O)c3ccc4[nH]nnc4c3)C[C@H]2C1 [Example 17.04, 1-[(3aR,6aR)-5-(1H-benzotriazole-5-carbonyl)-hexahydro-pyrrolo[3,4-c]pyrrol-2-yl]-3-(2-fluoro-4-trifluoromethoxy-phenyl)-propan-1-one] | 8
O=C(CCc1ccc(F)cc1C(F)(F)F)N1CC[C@@H]2CN(C(=O)c3ccc4[nH]nnc4c3)C[C@@H]2CC1 [Example 17.05, 1-((3aR,8aS)-2-(1H-benzo[d][1,2,3]triazole-5-carbonyl)octahydropyrrolo[3,4-d]azepin-6(7H)-yl)-3-(4-fluoro-2-(trifluoromethyl)phenyl)propan-1-one] | 6
Cc1cc(OC(F)(F)F)ccc1CCC(=O)N1CC[C@@H]2CN(C(=O)c3ccc4[nH]nnc4c3)C[C@@H]2CC1 [Example 17.06, 1-((3aR,8aS)-2-(1H-benzo[d][1,2,3]triazole-5-carbonyl)octahydropyrrolo[3,4-d]azepin-6(7H)-yl)-3-(2-methyl-4-(trifluoromethoxy)phenyl)-propan-1-one] | 10
COc1ccc(CCC(=O)N2CC[C@@H]3CN(C(=O)c4ccc5[nH]nnc5c4)C[C@@H]3CC2)cc1F [Example 17.07, 1-((3aR,8aS)-2-(1H-benzo[d][1,2,3]triazole-5-carbonyl)octahydropyrrolo[3,4-d]azepin-6(7H)-yl)-3-(3-fluoro-4-methoxyphenyl)propan-1-one] | 43
CC(C)c1ccccc1CCC(=O)N1CC[C@@H]2CN(C(=O)c3ccc4[nH]nnc4c3)C[C@@H]2CC1 [Example 17.08, 1-[(3aS,8aR)-2-(1H-benzotriazole-5-carbonyl)-octahydro-pyrrolo[3,4-d]azepin-6-yl]-3-(2-isopropyl-phenyl)-propan-1-one] | 16
O=C(CCc1ccc(C(F)(F)F)cn1)N1C[C@@H]2CN(C(=O)c3ccc4[nH]nnc4c3)C[C@H]2C1 [Example 17.09, 1-[(3aR,6aR)-5-(1H-benzotriazole-5-carbonyl)-hexahydro-pyrrolo[3,4-c]pyrrol-2-yl]-3-(5-trifluoromethyl-pyridin-2-yl)-propan-1-one] | 58
O=C(CCc1ccc(-c2ccccc2)cn1)N1C[C@@H]2CN(C(=O)c3ccc4[nH]nnc4c3)C[C@H]2C1 [Example 17.10, 1-[(3aR,6aR)-5-(1H-benzotriazole-5-carbonyl)-hexahydro-pyrrolo[3,4-c]pyrrol-2-yl]-3-(5-phenyl-pyridin-2-yl)-propan-1-one] | 21
O=C(CCc1ccc(-c2ccncc2)cc1)N1C[C@@H]2CN(C(=O)c3ccc4[nH]nnc4c3)C[C@H]2C1 [Example 17.11, 1-[(3aR,6aR)-5-(1H-benzotriazole-5-carbonyl)-hexahydro-pyrrolo[3,4-c]pyrrol-2-yl]-3-(4-pyridin-4-yl-phenyl)-propan-1-one] | 28
O=C(CCc1ccc(-c2cccnc2)cc1)N1C[C@@H]2CN(C(=O)c3ccc4[nH]nnc4c3)C[C@H]2C1 [Example 17.12, 1-[(3aR,6aR)-5-(1H-benzotriazole-5-carbonyl)-hexahydro-pyrrolo[3,4-c]pyrrol-2-yl]-3-(4-pyridin-3-yl-phenyl)-propan-1-one] | 32
O=C(CCc1ccc(-c2ccccn2)cc1)N1C[C@@H]2CN(C(=O)c3ccc4[nH]nnc4c3)C[C@H]2C1 [Example 17.13, 1-[(3aR,6aR)-5-(1H-benzotriazole-5-carbonyl)-hexahydro-pyrrolo[3,4-c]pyrrol-2-yl]-3-(4-pyridin-2-yl-phenyl)-propan-1-one] | 31
O=C(CCc1ccc(OC(F)(F)F)cc1)N1CC[C@@H]2CN(C(=O)NCCc3cnn[nH]3)C[C@@H]2CC1 [Example 17.14, (3aS,8aR)-6-[3-(4-trifluoromethoxy-phenyl)-propionyl]-octahydro-pyrrolo[3,4-d]azepine-2-carboxylic acid [2-(3H-[1,2,3]triazol-4-yl)-ethyl]-amide] | 464
O=C(CCc1cc(Cl)cc(C(F)(F)F)c1)N1CC[C@@H]2CN(C(=O)c3ccc4[nH]nnc4c3)C[C@@H]2CC1 [Example 17.17, 1-((3aR,8aS)-2-(1H-benzo[d][1,2,3]triazole-5-carbonyl)octahydropyrrolo[3,4-d]azepin-6(7H)-yl)-3-(3-chloro-5-(trifluoromethyl)phenyl)propan-1-one] | 4
COc1ccc(CCC(=O)N2CC[C@@H]3CN(C(=O)c4ccc5[nH]nnc5c4)C[C@@H]3CC2)c(C(F)(F)F)c1 [Example 17.18, 1-((3aR,8aS)-2-(1H-benzo[d][1,2,3]triazole-5-carbonyl)octahydropyrrolo[3,4-d]azepin-6(7H)-yl)-3-(4-methoxy-2-(trifluoromethyl)phenyl)propan-1-one] | 14
